The text below walks through data of patent US9505773B2 (Isomerase Therapeutics Limited, priority 2013, dated 2016).

The target in one test is FKBP12 (Homo sapiens (Human), UniProt P62942). In words: FKBP12 PPlase assay. The test is classed as biochemical. The note with it: for Ki: FKBP12 PPlase assay, 6 concentrations in duplicate, data fitted to a Ki curve; for inhibition at 1 µM: read-out: inhibition of FKBP12 at 1 uM.
Test [1] has as its system murine T cell proliferation (PLP peptide-stimulated lymph node cells; mTOR-driven). The test is described as follows: Murine PLP T cell proliferation assay (PLP assay). In kind it is cell-based. As to conditions: for IC50: Mus musculus, PLP T-cell proliferation assay; for Ratio (PLP/FKBP*): PLP IC50 / FKBP12 Ki (Ki values from Example 19).
Procedure: Murine PLP T Cell Proliferation Assay
Activity of mTOR inhibitors was measured in two different antigen-specific murine T cell proliferation assays (as described in Young et al., 2000). […] In a second type of assay, lymph nodes obtained from PLP TCR transgenic mice are simulated with PLP peptide in culture in a primary stimulation assay.

Chain of FKBP12 (P62942 whole entry, species assumed): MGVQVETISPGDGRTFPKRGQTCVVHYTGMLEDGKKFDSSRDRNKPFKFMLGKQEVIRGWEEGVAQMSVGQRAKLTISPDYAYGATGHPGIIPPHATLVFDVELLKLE
Procedure for FKBP12: The first order rate equation was fitted to the absorbance data to obtain a rate constant. A catalytic rate (Kenz) was calculated from the enzymatic rate minus the background rate. Kenz v inhibitor concentration was plotted to obtain the Ki value. […] All compounds were assayed at 6 concentrations in duplicate and the data fitted to a Ki curve to afford a Ki value with standard error (SE).

Usually Ki stands for a measure of affinity in units of concentration, obtained from inhibition or displacement. The compound `CO[C@H]1C[C@@H]2CC[C@@H](C)[C@](O)(CC(=O)N3CCCC[C@H]3C(=O)O[C@H]([C@H](C)C[C@H]3CC[C@H](O)CC3)C/C=C(\C)[C@@H](O)CC(=O)[C@H](C)C[C@H](C)/C=C/C=C/C=C/1C)O2` [Compound 18] had an inhibition constant Ki on FKBP12 of 45 nM.
Usually IC50 stands for the midpoint of a concentration-inhibition curve. Higher therefore signals weaker potency. In the case of `CO[C@H]1C[C@@H]2CC[C@@H](C)[C@@](O)(O2)C(=O)C(=O)N2CCCC[C@H]2C(=O)OC([C@H](C)Cc2ccncc2)C/C=C(\C)[C@@H](O)CC(=O)[C@H](C)C[C@H](C)/C=C/C=C/C=C/1C` (some centres unmarked) [Compound 13], the affinity at FKBP12, expressed as Ki, was 13 nM. In test [1], the IC50 was 6590 nM and the “Ratio (PLP/FKBP*)” value turned out to be 506.6154.
The matching figures for `CO[C@H]1C[C@@H]2CC[C@@H](C)[C@](O)(CC(=O)N3CCCC[C@H]3C(=O)OC([C@H](C)C[C@H]3CC[C@H](O)CC3)CC(=O)[C@H](C)C[C@H](C)/C=C/C=C/C=C/1C)O2` (some centres unmarked) [Compound 6]: 370 nM, 2620 nM and 7.095.
The matching figures for `CO[C@H]1C[C@@H]2CC[C@@H](C)[C@@](O)(O2)C(=O)C(=O)N2CCCC[C@H]2C(=O)OC([C@H](C)C[C@@H]2CC[C@@H](O)[C@H](OC)C2)C/C=C(\C)[C@@H](O)CC(=O)[C@H](C)C[C@H](C)/C=C/C=C/C=C/1C` (some centres unmarked) [Compound 8]: 5.9 nM, 490 nM and 83.05.
For `CO[C@H]1C[C@@H]2CC[C@@H](C)[C@@](O)(O2)C(=O)C(=O)N2CCCC[C@H]2C(=O)O[C@H]([C@H](C)C[C@H]2CC[C@H](O)CC2)CC(O)CC(=O)[C@H](C)/C=C(\C)[C@@H](O)CC(=O)[C@@H](C)C[C@H](C)/C=C/C=C/C=C/1C` (some centres unmarked) [Compound 14], at FKBP12, the inhibition constant Ki is 6.5 nM.
With `CO[C@H]1C[C@@H]2CC[C@@H](C)[C@@](O)(O2)C(=O)C(=O)N2CCCC[C@H]2C(=O)O[C@H]([C@H](C)C[C@H]2CC[C@H](O)CC2)C/C=C(\C)[C@@H](O)[C@@H](O)C(=O)[C@H](C)C[C@H](C)/C=C/C=C/C=C/1C` [Compound 20], on FKBP12, the affinity, expressed as Ki, was 18 nM.
For `CC/C1=C\CC(/C(C)=C/C(C)C(C)O)OC(=O)C2CCCCN2C(=O)C(=O)C2(O)OC(CCC2C)CC(O)C(C)C(O)CC(O)CC(O)/C(C)=C/C(C)CC(C)C1O` (centres unmarked) [Meridamycin], the affinity at FKBP12, expressed as Ki, was 10 nM.
For the compound `CO[C@H]1C[C@@H]2CC[C@@H](C)[C@@](O)(O2)C(=O)C(=O)N2CCCC[C@H]2C(=O)OC([C@H](C)C[C@@H]2CC[C@@H](O)[C@H](O)C2)C/C=C(\C)[C@@H](O)CC(=O)[C@H](C)C[C@H](C)/C=C/C=C/C=C/1C` (some centres unmarked) [Compound 10], affinity at FKBP12 was put at a Ki of 4.2 nM. In test [1], the midpoint of inhibition, the IC50, lay at 14000 nM and the “Ratio (PLP/FKBP*)” value was 3338.333.
For `CO[C@H]1C[C@@H]2CC[C@@H](C)[C@@](O)(O2)C(=O)C(=O)N2CCCC[C@H]2C(=O)OC([C@H](C)C[C@H]2CC[C@H](O)CC2)C/C=C(\C)[C@@H](O)CC(=O)[C@H](C)C[C@H](C)/C=C/C=C/C=C/1C` (some centres unmarked) [Compound 5], the Ki at FKBP12 stood at 7.9 nM.
Broadly, the inhibition is how much of the control response was suppressed. As to `CO[C@@H](C[C@@H]1CC[C@@H](C)[C@](O)(CC(=O)N2CCCC[C@H]2C(=O)O)O1)/C(C)=C/C=C/C=C/[C@@H](C)C[C@H]1CC[C@H](O)CC1` [Compound 3], the inhibition at 1 µM at FKBP12 is 25%. Half-maximal inhibition in test [1] (IC50) required 1450 nM.
On FKBP12, `C/C1=C\C[C@@H]([C@H](C)C[C@H]2CC[C@H](O)CC2)OC(=O)[C@@H]2CCCCN2C(=O)C(=O)[C@]2(O)O[C@@H](CC[C@H]2C)C[C@H](O)/C(C)=C/C=C/C=C/[C@@H](C)C[C@@H](C)C(=O)C[C@@H]1O` [Compound 19] showed a Ki of 7.7 nM.
As to `CO[C@H]1C[C@@H]2CC[C@@H](C)[C@@](O)(O2)C(=O)C(=O)N2CCCC[C@H]2C(=O)OC([C@H](C)Cc2ccc(CO)s2)C/C=C(\C)[C@@H](O)CC(=O)[C@H](C)C[C@H](C)/C=C/C=C/C=C/1C` (some centres unmarked) [Compound 12], the affinity at FKBP12, expressed as Ki, was 9.5 nM. Also, in test [1], the IC50 turned out to be 2860 nM and the “Ratio (PLP/FKBP*)” value is 301.5789.
As for `C\C1=C/C=C/C=C/[C@@H](C)C[C@@H](C)C(=O)C2CCC(CC2)OC(=O)[C@@H]2CCCCN2C(=O)C(=O)[C@]2(O)O[C@@H](CC[C@H]2C)C[C@@H]1O` [Compound 16], at FKBP12, affinity was put at a Ki of 460 nM.
In turn, `CO[C@H]1C[C@@H]2CC[C@@H](C)[C@@](O)(O2)C(=O)C(=O)N2CCCC[C@H]2C(=O)OC([C@H](C)C[C@H]2CC[C@H](O)CC2)C[C@@H](O)CC(=O)[C@H](C)C[C@H](C)/C=C/C=C/C=C/1C` (some centres unmarked) [Compound 4] had a concentration for half-maximal inhibition (IC50) in test [1] of 4460 nM.
In the case of `CO[C@H]1C[C@@H]2CC[C@@H](C)[C@@](O)(O2)C(=O)C(=O)N2CCCC[C@H]2C(=O)OC2CCC(CC2)C(=O)[C@H](C)C[C@H](C)/C=C/C=C/C=C/1C` [Compound 15], the inhibition at 1 µM on FKBP12 came out at 31%.
On to `CO[C@H]1C[C@@H]2CC[C@@H](C)[C@@](O)(O2)C(=O)C(=O)N2CCCC[C@H]2C(=O)O[C@H]([C@H](C)C[C@@H]2CC[C@@H](O)[C@H](OC)C2)CC(=O)[C@H](C)/C=C(\C)[C@@H](O)[C@@H](OC)C(=O)[C@H](C)C[C@H](C)/C=C/C=C/C=C/1C` [Rapamycin, rapamycin, reference compound], for which it took 0.024 nM to reach half-maximal inhibition in test [1] (IC50).
With `CO[C@@H](C[C@@H]1CC[C@@H](C)[C@](O)(C(=O)C(=O)N2CCCC[C@H]2C(=O)O[C@@H](C/C=C(\C)C=O)[C@H](C)C[C@H]2CC[C@H](O)CC2)O1)/C(C)=C/C=C/C=C/[C@@H](C)C[C@@H](C)C(=O)CO` [Compound 22], affinity on FKBP12 was put at a Ki of 12 nM.
`CO[C@H]1C[C@@H]2CC[C@@H](C)[C@](O)(CC(=O)N3CCCC[C@H]3C(=O)O[C@H](/C(C)=C/CC(O)[C@H](C)C[C@@H]3CC[C@@H](O)[C@H](O)C3)CC(=O)[C@H](C)C[C@H](C)/C=C/C=C/C=C/1C)O2` (some centres unmarked) [Compound 11] yielded a Ki on FKBP12 of 430 nM. In test [1], half-maximal inhibition (IC50) was put at 4180 nM and the “Ratio (PLP/FKBP*)” value came to 9.721.
`CO[C@H]1C[C@@H]2CC[C@@H](C)[C@](O)(CC(=O)N3CCCC[C@H]3C(=O)OC([C@H](C)C[C@@H]3CC[C@@H](O)[C@H](O)C3)C/C=C(\C)[C@@H](O)CC(=O)[C@H](C)C[C@H](C)/C=C/C=C/C=C/1C)O2` (some centres unmarked) [Compound 9] displayed a Ki on FKBP12 of 180 nM.
